Article PMC12635268, “Novel antimicrobial peptides and peptide-microbiome crosstalk in Appalachian salamander skin” (NPJ Biofilms and Microbiomes, 2025)
In brackets after ≈: the same amount, converted by molar mass.

What was measured:
Test in all cases: microbe, parasite or virus in culture
A. baumannii ATCC 19606 = conditions: A. baumannii 19606
Outline: (§1)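 Broth microdilution in cation-adjusted Mueller-Hinton broth, final inoculum 1 × 10⁵ CFU/mL, peptides 0.25 to 128 μg/mL in 0.02% TFA + 0.04% BSA. Duplicates incubated 20 h at 37 °C without agitation. MIC read visually per CLSI with image-analysis support.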

E. coli ATCC 35218 = conditions: E. coli 35218
Outline: as §1

E. faecium ATCC 19434 = conditions: E. faecium 19434
Outline: as §1

E. faecium ATCC 49224 = conditions: E. faecium 49224
Outline: as §1

K. pneumoniae ATCC 13883 = conditions: K. pneumoniae 13883
Outline: as §1

[1] = system: K. pneumoniae ATCC 700603; conditions: K. pneumoniae 700603
Outline: as §1

P. aeruginosa ATCC 27853 = conditions: P. aeruginosa 27853
Outline: as §1

P. aeruginosa MRSN 5519 = conditions: P. aeruginosa 5519
Outline: as §1

S. aureus ATCC 25923 = conditions: S. aureus 25923
Outline: as §1

S. aureus ATCC 43300 = conditions: S. aureus 43300
Outline: as §1

P. aeruginosa PA01 = assay type: cell-based
Outline: as §1

P. aeruginosa PA01 (Si) = assay type: cell-based; conditions: P. aeruginosa PA01 (Si), not typical ESKAPEE strain
Source text: Supplement 41522_2025_837_MOESM13_ESM.xlsx, sheet "Table_S13_ESKAPEE-MIC" | column: Bacterial MIC (µg/mL)

[2] = CAMHB, 1 × 10⁵ CFU/mL, 0.25 to 128 μg/mL, 37 °C 20 h, duplicate, read visually (CLSI)

CC[C@H](C)[C@H](NC(=O)[C@H](CCCCN)NC(=O)[C@H](CCC(=O)O)NC(=O)[C@H](CCCCN)NC(=O)[C@H](CO)NC(=O)[C@H](CCCCN)NC(=O)[C@H](CCCNC(=N)N)NC(=O)[C@H](Cc1ccccc1)NC(=O)[C@H](Cc1ccccc1)NC(=O)[C@H](CC(=O)O)NC(=O)CNC(=O)[C@H](CC(C)C)NC(=O)[C@@H](N)CC(C)C)C(=O)NCC(=O)N[C@@H](CCCCN)C(=O)N[C@@H](CCC(=O)O)C(=O)N[C@@H](Cc1ccccc1)C(=O)N[C@@H](CCCCN)C(=O)N[C@@H](CCCNC(=N)N)C(=O)N[C@H](C(=O)N[C@H](C(=O)N[C@@H](CCC(N)=O)C(=O)N[C@@H](CCCNC(=N)N)C(=O)N[C@H](C(=O)N[C@@H](CCCCN)C(=O)N[C@@H](CC(=O)O)C(=O)N[C@@H](Cc1ccccc1)C(=O)N[C@@H](CC(C)C)C(=O)N[C@@H](CCCNC(=N)N)C(=O)N[C@@H](CC(N)=O)C(=O)N[C@@H](CC(C)C)C(=O)N[C@H](C(=O)N1CCC[C@H]1C(=O)N[C@@H](CCCNC(=N)N)C(=O)N[C@H](C(=O)N[C@@H](CCC(=O)O)C(=O)N[C@@H](CO)C(=O)O)[C@@H](C)O)C(C)C)[C@@H](C)CC)C(C)C)[C@@H](C)CC [LL-37, reference compound]
MIC (A. baumannii ATCC 19606; [2]): 2 µg/mL (≈ 0.445 µM)
Bacterial MIC (A. baumannii ATCC 19606; Week 1 (12/6/2023)): 2 µg/mL
MIC (E. coli ATCC 35218; [2]): 8 µg/mL (≈ 1.78 µM)
Bacterial MIC (E. coli ATCC 35218; Week 2 (12/14/2023)): 8 µg/mL
MIC (E. faecium ATCC 19434; [2]): 32 µg/mL (≈ 7.12 µM)
Bacterial MIC (E. faecium ATCC 19434; Week 1 (12/6/2023)): 32 µg/mL
Bacterial MIC (E. faecium ATCC 19434; Week 2 (12/14/2023)): 64 µg/mL
MIC (E. faecium ATCC 49224; [2]): 32 µg/mL (≈ 7.12 µM)
Bacterial MIC (E. faecium ATCC 49224; Week 1 (12/6/2023)): 32 µg/mL
Bacterial MIC (E. faecium ATCC 49224; Week 2 (12/14/2023)): 64 µg/mL
MIC (K. pneumoniae ATCC 13883; [2]): 4 µg/mL (≈ 0.89 µM)
Bacterial MIC (K. pneumoniae ATCC 13883; Week 1 (12/6/2023)): 4 µg/mL
Bacterial MIC (K. pneumoniae ATCC 13883; Week 2 (12/14/2023)): 8 µg/mL
MIC [1, 2]: 32 µg/mL (≈ 7.12 µM)
Bacterial MIC ([1]; Week 1 (12/6/2023)): 32 µg/mL
MIC (P. aeruginosa ATCC 27853; [2]): 8 µg/mL (≈ 1.78 µM)
Bacterial MIC (P. aeruginosa ATCC 27853; Week 1 (12/6/2023)): 8 µg/mL
Bacterial MIC (P. aeruginosa ATCC 27853; Week 2 (12/14/2023)): 8 µg/mL
MIC (P. aeruginosa MRSN 5519; [2]): 16 µg/mL (≈ 3.56 µM)
Bacterial MIC (P. aeruginosa MRSN 5519; Week 1 (12/6/2023)): 16 µg/mL
Bacterial MIC (P. aeruginosa MRSN 5519; Week 2 (12/14/2023)): 16 µg/mL
MIC (S. aureus ATCC 25923; [2]): >128 µg/mL
Bacterial MIC (S. aureus ATCC 25923; Week 1 (12/6/2023)): >128.000 µg/mL
Bacterial MIC (S. aureus ATCC 25923; Week 2 (12/14/2023)): >128.000 µg/mL
MIC (S. aureus ATCC 43300; [2]): >128 µg/mL
Bacterial MIC (S. aureus ATCC 43300; Week 1 (12/6/2023)): >128.000 µg/mL
Bacterial MIC (S. aureus ATCC 43300; Week 2 (12/14/2023)): >128.000 µg/mL
Bacterial MIC (P. aeruginosa PA01; P. aeruginosa 15692 (PAO1), Week 2 (12/14/2023)): 16 µg/mL
MIC (P. aeruginosa PA01; P. aeruginosa PA01, CAMHB, 1 × 10⁵ CFU/mL, 0.25 to 128 μg/mL, 37 °C 20 h, duplicate, read visually (CLSI)): 4 µg/mL (≈ 0.89 µM)
Bacterial MIC (P. aeruginosa PA01 (Si); Week 1 (12/6/2023)): 4 µg/mL
Bacterial MIC (P. aeruginosa PA01 (Si); Week 2 (12/14/2023)): 4 to 8 µg/mL
